The record followed here is patent US9682990B2, “Alcohol-, diol-, and carbohydrate-substituted indenoisoquinolines as topoisomerase I inhibitors” (Purdue Research Foundation, priority 2011, dated 2017).

The term IC50 denotes the concentration that inhibits the measured activity by half. Higher therefore signals lower potency. The GI50 is the concentration giving 50% growth inhibition. By melting point is commonly meant the temperature of the solid-liquid transition.

The target in data set [1] is Tyrosyl-DNA phosphodiesterase 1 (TDP1) (Homo sapiens, UniProt Q9NUW8). Kind of data set: TDP1 inhibition. In kind it is biochemical. The settings on record: scores correspond to IC50 ranges. An excerpt:
Tyrosyl-DNA phosphodiesterase 1 (TDP1) is a DNA repair enzyme that repairs cytotoxic DNA damage induced by Top1 inhibitors.

The test system of data set [2] is all human cancer cell lines successfully tested. The data set is described as follows: NCI-60 cell line assay, mean-graph midpoint. In kind it is cell-based. The settings on record: for GI50: read-out: MGM GI50; for MGM (mean graph midpoint for growth inhibition): all human cancer cell lines tested, 10^−8 to 10^−4 molar. The protocol:
Biological Results. The indenoisoquinoline analogues were tested for antiproliferative activity in the National Cancer Institute's Developmental Therapeutics Assay against cell lines derived from approximately 60 different human tumors. […] The cytotoxicities of the compounds to cultured cancer cells were measured in the National Cancer Institute's 60 cell line assay (a.k.a. NCI-60).

A further data set has as its system DU-145 (Prostate). Kind of data set: NCI Developmental Therapeutics antiproliferative assay, DU-145. In kind it is cell-based, human. The protocol: (§1) Biological Results. The indenoisoquinoline analogues were tested for antiproliferative activity in the National Cancer Institute's Developmental Therapeutics Assay against cell lines derived from approximately 60 different human tumors.

In the next data set the test system is HOP-62 (Lung). The data set is described as follows: NCI Developmental Therapeutics antiproliferative assay, HOP-62. The data set is classed as cell-based, human. The protocol: as §1
Another data set has as its system OVCAR-3 (Ovarian). The data set is described as follows: NCI Developmental Therapeutics antiproliferative assay, OVCAR-3. In kind it is cell-based, human. The protocol:
(§2) Biological Results. The indenoisoquinoline analogues were tested for antiproliferative activity in the National Cancer Institute's Developmental Therapeutics Assay against cell lines derived from approximately 60 different human tumors. […] Results are reported in Table 2 as GI50 values for selected cell lines, and overall antiproliferative potency is quantified as a mean-graph midpoint (MGM).

A further data set deals with UACC-62 (Melanoma). The data set is described as follows: NCI Developmental Therapeutics antiproliferative assay, UACC-62. In kind it is cell-based, human. The protocol: as §1
Another data set concerns HCT-116 (Colon). Kind of data set: NCI Developmental Therapeutics antiproliferative assay, HCT-116. In kind it is cell-based, human. The protocol:
as §1

Another data set deals with SF-539 (CNS). Kind of data set: NCI Developmental Therapeutics antiproliferative assay, SF-539. The data set is classed as cell-based, human. The protocol:
as §2

Another data set relates to SN12C (Renal). Kind of data set: NCI Developmental Therapeutics antiproliferative assay, SN12C. In kind it is cell-based, human. The protocol: as §2
The test system of another data set is MCF7 (Breast). Kind of data set: NCI Developmental Therapeutics antiproliferative assay, MCF7. The data set is classed as cell-based, human. The protocol: as §2
The next data set concerns the target T1, Human recombinant Top1 (Homo sapiens, UniProt P11387).
T1 sequence (P11387 1-765): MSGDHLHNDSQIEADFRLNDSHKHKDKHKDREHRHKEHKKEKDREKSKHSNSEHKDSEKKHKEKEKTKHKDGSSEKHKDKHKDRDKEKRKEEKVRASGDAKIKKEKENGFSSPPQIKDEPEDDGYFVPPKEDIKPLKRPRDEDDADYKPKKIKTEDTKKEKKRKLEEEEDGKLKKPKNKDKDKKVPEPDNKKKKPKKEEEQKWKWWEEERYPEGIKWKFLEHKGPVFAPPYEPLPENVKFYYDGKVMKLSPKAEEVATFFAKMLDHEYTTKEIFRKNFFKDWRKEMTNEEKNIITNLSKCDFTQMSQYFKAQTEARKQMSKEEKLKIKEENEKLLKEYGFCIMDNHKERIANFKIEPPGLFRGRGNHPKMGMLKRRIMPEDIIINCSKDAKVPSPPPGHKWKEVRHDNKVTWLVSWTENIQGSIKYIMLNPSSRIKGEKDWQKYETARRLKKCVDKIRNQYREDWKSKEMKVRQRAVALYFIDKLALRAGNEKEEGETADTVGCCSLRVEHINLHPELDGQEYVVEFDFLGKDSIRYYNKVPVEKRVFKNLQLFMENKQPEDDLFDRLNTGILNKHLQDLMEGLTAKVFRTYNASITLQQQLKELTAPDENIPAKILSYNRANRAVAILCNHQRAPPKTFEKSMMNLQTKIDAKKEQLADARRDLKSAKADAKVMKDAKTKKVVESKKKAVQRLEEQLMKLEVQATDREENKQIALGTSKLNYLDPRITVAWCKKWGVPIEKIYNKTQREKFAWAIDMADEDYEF
Kind of data set: Top1-mediated DNA cleavage assay. As to conditions: scale relative to 1 μM camptothecin.

Data set [3] concerns cell lines derived from approximately 60 different human tumors. The data set is described as follows: NCI initial one-dose screening assay. The data set is classed as cell-based. As to conditions: percentage of cell growth, one-dose assay at 10 μM.
The mark [4] stands for this setting: Homo sapiens, Table 3, NCI-60, unit inferred.
[5] abbreviates: Homo sapiens, DU-145, 50% growth inhibition, read-out: Cytotoxicity (GI50) Prostate DU-145.
Setting [6] is: Homo sapiens, HOP-62, 50% growth inhibition, read-out: Cytotoxicity (GI50) Lung HOP-62.
Where [7] appears, read: Homo sapiens, OVCAR-3, 50% growth inhibition, read-out: Cytotoxicity (GI50) Ovarian OVCAR-3.
The mark [8] stands for this setting: Homo sapiens, UACC-62, 50% growth inhibition, read-out: Cytotoxicity (GI50) Melanoma UACC-62.
Setting [9] is: Homo sapiens, SF-539, 50% growth inhibition, read-out: Cytotoxicity (GI50) CNS SF-539.
Setting [10] is: Homo sapiens, SN12C, 50% growth inhibition, read-out: Cytotoxicity (GI50) Renal SN12C.
[11] abbreviates: Homo sapiens, MCF7, 50% growth inhibition, read-out: Cytotoxicity (GI50) Breast MCF7.

Where two headings read alike, the source gives them in different places.

Chain of Tyrosyl-DNA phosphodiesterase 1 (TDP1) (Q9NUW8 whole entry, species assumed): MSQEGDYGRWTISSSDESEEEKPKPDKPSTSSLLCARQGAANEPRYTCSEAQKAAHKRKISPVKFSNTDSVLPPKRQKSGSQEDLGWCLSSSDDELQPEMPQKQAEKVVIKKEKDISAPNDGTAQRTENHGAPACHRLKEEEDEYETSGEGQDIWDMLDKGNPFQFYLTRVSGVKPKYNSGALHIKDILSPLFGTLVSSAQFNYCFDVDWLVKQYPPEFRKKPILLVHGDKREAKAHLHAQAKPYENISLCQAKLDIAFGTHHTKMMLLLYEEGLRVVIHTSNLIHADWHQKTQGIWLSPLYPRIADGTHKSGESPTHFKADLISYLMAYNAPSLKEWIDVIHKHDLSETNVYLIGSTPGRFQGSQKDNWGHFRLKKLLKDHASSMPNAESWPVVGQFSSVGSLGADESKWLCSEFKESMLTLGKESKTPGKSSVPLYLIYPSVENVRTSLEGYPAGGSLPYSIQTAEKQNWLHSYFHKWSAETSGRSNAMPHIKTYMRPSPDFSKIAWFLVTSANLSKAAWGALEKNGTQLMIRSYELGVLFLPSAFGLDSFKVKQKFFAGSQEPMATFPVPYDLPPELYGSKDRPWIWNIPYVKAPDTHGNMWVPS
Protocol for Human recombinant Top1: Topoisomerase I-Mediated DNA Cleavage Reactions. Human recombinant Top1 was purified from Baculovirus as previously described. […] Unincorporated [32]P-dGTP was removed using mini Quick Spin DNA columns (Roche, Indianapolis, Ind.), and the eluate containing the 3'-end-labeled DNA substrate was collected. […] The reactions were terminated by adding SDS (0.5% final concentration) followed by the addition of two volumes of loading dye (80% formamide, 10 mM sodium hydroxide, 1 mM sodium EDTA, 0.1% xylene cyanol, and 0.1% bromphenol blue). Aliquots of each reaction were subjected to 20% denaturing PAGE. Gels were dried and visualized by using a Phosphoimager and ImageQuant software (Molecular Dynamics).

Compound `O=C1c2cc3c(cc2-c2c1c1ccc(F)cc1c(=O)n2C[C@H](O)[C@@H](O)[C@H](O)CO)OCO3` showed an IC50 in [1] greater than 111 µM. Also, in [2] (setting [4]), the GI50 stood at 0.078 µM.
`O=C1c2ccccc2-c2c1c1ccccc1c(=O)n2C[C@@H](O)CO` [Compound 12b, (2′R)-5,6-Dihydro-6-[(2′,3′-dihydroxypropyl)]-5,11-dioxo-11H-indeno[1,2-c]isoquinoline] registered a melting point of 200 to 205 °C. Moreover, in the data set on DU-145 (Prostate) (setting [5]), the GI50 was determined as 2.34 µM. Further, in the data set with HOP-62 (Lung) (setting [6]), the GI50 is 3.79 µM. Also, the concentration for 50% growth inhibition (GI50) with OVCAR-3 (Ovarian) (setting [7]) amounted to 16.1 µM. For the same compound, in the data set on UACC-62 (Melanoma) (setting [8]), the GI50 came out at 4.36 µM. In addition, the GI50 in the data set with HCT-116 (Colon) (Homo sapiens, HCT-116, 50% growth inhibition, read-out: Cytotoxicity (GI50) Colon HCT-116) worked out at 4.47 µM. Moreover, in the data set with SF-539 (CNS) (setting [9]), the GI50 came to 5.72 µM. The GI50 with SN12C (Renal) (setting [10]) worked out at 3.77 µM. In addition, in the data set with MCF7 (Breast) (setting [11]), the GI50 stood at 3.04 µM. For the same compound, in data set [2], the “MGM (mean graph midpoint for growth inhibition)” value turned out to be 6.24 ± 0.22 µM.
With `O=C1c2cc3c(cc2-c2c1c1cc(Cl)c(Cl)cc1c(=O)n2C[C@H](O)CO)OCO3`, the IC50 in data set [1] was greater than 111 µM. Also, the GI50 in [2] (setting [4]) is 0.013 µM.
As for `O=C1c2cc3c(cc2-c2c1c1ccc(Cl)cc1c(=O)n2C[C@H](O)[C@H](O)[C@H](O)CO)OCO3`, the IC50 in data set [1] is greater than 111 µM.
Consider `O=C1c2ccccc2-c2c1c1ccccc1c(=O)n2C[C@H](O)CO` [Compound 12a, (2′S)-5,6-Dihydro-6-[(2′,3′-dihydroxypropyl)]-5,11-dioxo-11H-indeno[1,2-c]isoquinoline], for which the GI50 was 5.75 µM with DU-145 (Prostate) (setting [5]); 5.01 µM in the data set on HOP-62 (Lung) (setting [6]); 14.5 µM with OVCAR-3 (Ovarian) (setting [7]); 5.37 µM with UACC-62 (Melanoma) (setting [8]); 7.41 µM with SF-539 (CNS) (setting [9]); 6.92 µM with SN12C (Renal) (setting [10]). For the same compound, in the data set with MCF7 (Breast) (setting [11]), the GI50 came to 4.9 µM. Besides, the Top1 inhibitory activity entry on Human recombinant Top1 is “+++ (+++, between 75% and 95% activity)”. The “MGM (mean graph midpoint for growth inhibition)” value in data set [2] stood at 8.71 µM.
`C[C@H](O)Cn1c2c(c3ccccc3c1=O)C(=O)c1ccccc1-2` [Compound 27c, (2′RS)-5,6-Dihydro-6-(2′-hydroxypropyl)-5,11-dioxo-11H-indeno[1,2-c]isoquinoline]: the “Growth Percent” value in data set [3] worked out at 50.24%. The GI50 in the data set on DU-145 (Prostate) turned out to be 4.36 µM; in the data set on HOP-62 (Lung), 3.46 µM; with OVCAR-3 (Ovarian), 16.2 µM; in the data set on UACC-62 (Melanoma), 6.16 µM; in the data set on HCT-116 (Colon) it was 5.75 µM; with SF-539 (CNS), 6.76 µM. Besides, the GI50 with SN12C (Renal) was found to be 3.98 µM; with MCF7 (Breast), 3.8 µM. Besides, the “MGM (mean graph midpoint for growth inhibition)” value in data set [2] amounted to 7.9 µM.
In data set [1], `O=C1c2cc3c(cc2-c2c1c1cc(F)c(F)cc1c(=O)n2C[C@H](O)CO)OCO3` came in with an IC50 greater than 111 µM. For the same compound, in data set [2] (setting [4]), the GI50 came out at 0.068 µM.
`O=C1c2cc3c(cc2-c2c1c1ccc(Cl)cc1c(=O)n2C[C@H](O)CO)OCO3` gave an IC50 in data set [1] greater than 111 µM. The GI50 in data set [2] (setting [4]) came to 0.042 µM.
Regarding `C[C@@H](O)Cn1c2c(c3ccccc3c1=O)C(=O)c1ccccc1-2` [Compound 27a, (2′R)-5,6-Dihydro-6-(2′-hydroxypropyl)-5,11-dioxo-11H-indeno[1,2-c]isoquinoline], the “Growth Percent” value in data set [3] is listed as 55.23%. The GI50 in the data set with DU-145 (Prostate) is 8.32 µM; with HOP-62 (Lung) it was 3.39 µM; in the data set on OVCAR-3 (Ovarian), 21.4 µM; in the data set on UACC-62 (Melanoma), 10.2 µM; with HCT-116 (Colon), 5.52 µM; in the data set on SF-539 (CNS), 6.31 µM. Moreover, the GI50 worked out at 9.33 µM in the data set on SN12C (Renal) and 3.23 µM in the data set with MCF7 (Breast). Besides, the “MGM (mean graph midpoint for growth inhibition)” value in data set [2] was 10.2 µM.
For `NC[C@H](O)Cn1c2c(c3ccccc3c1=O)C(=O)c1ccccc1-2` [Compound 27d, (2′RS)-5,6-Dihydro-6-(3′-amino-2′-hydroxypropyl)-5,11-dioxo-11H-indeno[1,2-c]isoquinoline], the “Growth Percent” value in [3] is −23.49%. Also, the GI50 was 0.13 µM with DU-145 (Prostate); 0.276 µM with HOP-62 (Lung); 1.32 µM in the data set on OVCAR-3 (Ovarian); 0.318 µM in the data set on UACC-62 (Melanoma); 0.263 µM in the data set on HCT-116 (Colon); 0.344 µM in the data set with SF-539 (CNS). In addition, the values for the GI50 (in the data set on SN12C (Renal); with MCF7 (Breast); in [2]) were 0.206 µM, 0.198 µM and 0.348 µM, respectively. The “MGM (mean graph midpoint for growth inhibition)” value in [2] was 0.348 ± 0.109 µM.
On to `O=C1c2cc3c(cc2-c2c1c1ccc(F)cc1c(=O)n2C[C@H](O)CO)OCO3`, for which the half-maximal inhibitory concentration (IC50) in [1] is greater than 111 µM. Also, the GI50 in data set [2] (setting [4]) was found to be 0.105 µM.
